Experimental data: article PMC9380671, “Development of spiro-3-indolin-2-one containing compounds of antiproliferative and anti-SARS-CoV-2 properties” (Scientific Reports, 2022)
Like-named read-outs stand apart in the source and are kept apart here.

Assays:
[1] = system: MCF7 (breast) cancer cell line; assay: MTT antiproliferation, MCF7; type: cell-based, human; settings: for IC50: Homo sapiens, MCF7, 72 h, read-out: IC50 (µM) ± SEM MCF7; for SI (selectivity index) MCF7: IC50 of RPE1/IC50 of cancer cell line
Description: (§1) Antiproliferation properties of the targeted agents were investigated by the standard MTT technique against diverse human cancer cell lines [MCF7 (breast), HCT116 (colon), A431 (skin squamous) and PaCa2 (pancreatic)][67] (Table 1, Supplementary Figs. S48‒S51).
(§2) Cells were seeded at concentration of 30000 cells per well in fresh complete growth medium in 96-well tissue culture microtiter plates for 24 h. […] 0.5% DMSO was used as negative control. Triplicate wells were prepared for each individual dose. After 72 h of incubation, medium was aspirated, 40 μl MTT salt (2.5 mg ml^-1) was added to each well and incubated for further 4 h at 37 °C. To stop the reaction and dissolve the formed crystals, 150 μl of 10% sodium dodecyl sulfate (SDS) in deionized water was added to each well and incubated overnight at 37 °C.
(§3) Data were collected as mean values for experiments performed in triplicates for each individual dose which had been measured by MTT assay. […] The cell surviving fraction was calculated according to the following equation.
(§4) Surviving fraction = OpticaldensityO.D.oftreatedcellsO.D.ofcontrolcells
(§5) Statistical calculations for determination of the mean and standard error mean values were determined by SPSS 16 software.

[2] = system: HCT116 (colon) cancer cell line; assay: MTT antiproliferation, HCT116; type: cell-based, human; settings: for IC50: Homo sapiens, HCT-116, 72 h, read-out: IC50 (µM) ± SEM HCT116; for SI (selectivity index) HCT116: IC50 of RPE1/IC50 of cancer cell line
Description: as §1, §2, §3, §4, §5

[3] = system: A431 (skin squamous) cancer cell line; assay: MTT antiproliferation, A431; type: cell-based, human; settings: for IC50: Homo sapiens; for SI (selectivity index) A431: IC50 of RPE1/IC50 of cancer cell line
Description: as §1, §2, §3, §4, §5

[4] = system: PaCa2 (pancreatic) cancer cell line; assay: MTT antiproliferation, PaCa-2; type: cell-based, human; settings: for IC50: Homo sapiens, read-out: IC50 (µM) ± SEM PaCa-2; for SI (selectivity index) PaCa-2: IC50 of RPE1/IC50 of cancer cell line
Description: as §1
Cells were suspended in DMEM medium for MCF7, A431, PaCa-2 and McCoy’s 5A for HCT116 in addition to 1% antibiotic–antimycotic mixture (10000 μg ml^-1 potassium penicillin, 10000 μg ml^-1 streptomycin sulfate and 25 μg ml^-1 amphotericin B), 10% fetal bovine serum and 1% L-glutamine at 37 °C, under 5% CO2 and 95% humidity. Cells were seeded at concentration of 30000 cells per well in fresh complete growth medium in 96-well tissue culture microtiter plates for 24 h. Media was aspirated, fresh complete medium was added and cells were incubated with different concentrations of the tested compound to give a final concentration of [50, 25, 12.5 and 6.25 μM “in addition to 3.125, 1.56 and 0.78 μM in case of high potent analogues”). 0.5% DMSO was used as negative control. Triplicate wells were prepared for each individual dose. After 72 h of incubation, medium was aspirated, 40 μl MTT salt (2.5 mg ml^-1) was added to each well and incubated for further 4 h at 37 °C. To stop the reaction and dissolve the formed crystals, 150 μl of 10% sodium dodecyl sulfate (SDS) in deionized water was added to each well and incubated overnight at 37 °C. The absorbance was then measured at 570 nm and a reference wavelength of 595 nm.
as §3, §4
(§6) Statistical calculations for determination of the mean and standard error mean values were determined by SPSS 16 software. The observed anti-proliferative properties are presented in Table 1 (Supplementary Figs. S48‒S52).

[5] = system: RPE1 (normal human immortalized retinal pigment epithelial cell line); assay: MTT toxicity towards normal cells, RPE1; type: cell-based; settings: RPE-1, read-out: IC50 (µM) ± SEM RPE1
Description: The safety of the synthesized agents against non-cancer/normal RPE1 (retinal pigment epithelium) cell line was assessed (Table 1, Supplementary Fig. S52). The SI (selectivity index) for the tested compounds against RPE1 cell line confirms the safety towards non-cancer cells. […] Compound 6d and 6h which are also of high anti-PaCa2 show remarkable SI values (SI = > 3.8, > 3.6, respectively).
The agents synthesized were also tested against RPE1 (normal human immortalized retinal pigment epithelial cell line) cell (in DMEM-F12 medium) to determine the toxicity/selectivity towards normal cells relative to the cancer cell lines utilized.
as §6

EGFR = biological target: T1, EGFR (Homo sapiens, UniProt P00533); type: cell-based; settings: western blot, MCF7, compound at its MTT IC50; for EGFR RQ (relative quantification): control RQ 3.4461
T1 construct: Western blot technique was considered for EGFR and VEGFR-2 properties determination; endogenous in cells; host or cells: MCF7 (breast cancer cell line)
Description: (§7) The western blot technique was applied utilizing the IC50 observed for each respective agent synthesized during MTT assay[85],[86]. Consideration of multi-targeted inhibitory properties investigation is based in the fact that cancer initiation and proliferation sometimes utilizes many receptors or signaling pathways.
(§8) Western blot technique was considered for EGFR and VEGFR-2 properties determination utilizing the IC50 observed of each respective agent synthesized during MTT assay against MCF7 (breast) cancer cell line. All the studies were conducted according to the manufacturer’s instruction.^10,^11

VEGFR-2 = biological target: T2, VEGFR-2 (Homo sapiens, UniProt P35968); type: cell-based; settings: western blot, MCF7, compound at its MTT IC50; for VEGFR-2 RQ (relative quantification): control RQ 3.2634
T2 construct: Western blot technique was considered for EGFR and VEGFR-2 properties determination; endogenous in cells; host or cells: MCF7 (breast cancer cell line)
Description: as §7, §8

[6] = system: SARS-CoV-2 (hCoV-19/Egypt/NRC-03/2020); assay: Vero-E6 cell viral infection model, anti-SARS-CoV-2 IC50 (CPE, crystal violet); type: cell-based; settings: for IC50: Severe acute respiratory syndrome coronavirus 2, Vero C1008; for SI = CC50/IC50: Vero-E6, SARS-CoV-2
[7] = MTT cytotoxicity assay (CC50); type: cell-based; settings: African green monkey, VERO-E6 cells
Description: The cytotoxic activity of the compounds was tested in VERO-E6 cells by using the 3-(4,5-dimethylthiazol-2-yl)-2,5-diphenyltetrazolium bromide (MTT) method with minor modifications. Briefly, the cells were seeded in 96 well-plates […] at a density of 3 x 10^5 cell/ml and incubated for 24 h at 37 °C in 5% CO2. After 24 h, cells were treated with various concentrated of the tested compounds in triplicates. 24 h later, the supernatant was discarded and cell monolayers were washed with sterile 1x phosphate buffer saline (PBS) 3 times and MTT solution (20 µl of 5 mg/ml) was added to each well and incubated at 37 °C for 4 h followed by medium aspiration. In each well, the formed formazan crystals were dissolved with 200 µl of acidified isopropanol (0.04 M HCl in absolute isopropanol = 0.073 ml HCl in 50 ml isopropanol). Eventually, the absorbance was measured at λmax 570 nm using the Anthos Zenyth 200rt plate reader (Anthos Labtec Instruments, Heerhugowaard, Netherlands). The cytotoxicity of various concentrations compared to the untreated cells was determined using nonlinear regression analysis by plotting log inhibitor versus normalized response.^12^-14

AChE = AChE (Homo sapiens, UniProt P22303); assay: AChE inhibition (DTNB, acetylthiocholine); type: biochemical; settings: for IC50: read-out: AChE (IC50, μM) ± SD
Description: All compounds were dissolved in MeOH.

BChE = BChE (Homo sapiens, UniProt P06276); assay: BChE inhibition (DTNB, butyrylthiocholine iodide)
[8] = A-431, 72 h, read-out: IC50 (µM) ± SEM A431
[9] = A-431, read-out: Observed log(IC50, μM) (A431) (converted)
[10] = Vero-E6, 72 h, reduction of virus-induced CPE, read-out: IC50 (µM) SARS-CoV-2
[11] = log of observed IC50 in μM, read-out: Observed log(IC50, μM) (SARS-CoV-2) (converted)

T1 sequence (P00533 25-1210): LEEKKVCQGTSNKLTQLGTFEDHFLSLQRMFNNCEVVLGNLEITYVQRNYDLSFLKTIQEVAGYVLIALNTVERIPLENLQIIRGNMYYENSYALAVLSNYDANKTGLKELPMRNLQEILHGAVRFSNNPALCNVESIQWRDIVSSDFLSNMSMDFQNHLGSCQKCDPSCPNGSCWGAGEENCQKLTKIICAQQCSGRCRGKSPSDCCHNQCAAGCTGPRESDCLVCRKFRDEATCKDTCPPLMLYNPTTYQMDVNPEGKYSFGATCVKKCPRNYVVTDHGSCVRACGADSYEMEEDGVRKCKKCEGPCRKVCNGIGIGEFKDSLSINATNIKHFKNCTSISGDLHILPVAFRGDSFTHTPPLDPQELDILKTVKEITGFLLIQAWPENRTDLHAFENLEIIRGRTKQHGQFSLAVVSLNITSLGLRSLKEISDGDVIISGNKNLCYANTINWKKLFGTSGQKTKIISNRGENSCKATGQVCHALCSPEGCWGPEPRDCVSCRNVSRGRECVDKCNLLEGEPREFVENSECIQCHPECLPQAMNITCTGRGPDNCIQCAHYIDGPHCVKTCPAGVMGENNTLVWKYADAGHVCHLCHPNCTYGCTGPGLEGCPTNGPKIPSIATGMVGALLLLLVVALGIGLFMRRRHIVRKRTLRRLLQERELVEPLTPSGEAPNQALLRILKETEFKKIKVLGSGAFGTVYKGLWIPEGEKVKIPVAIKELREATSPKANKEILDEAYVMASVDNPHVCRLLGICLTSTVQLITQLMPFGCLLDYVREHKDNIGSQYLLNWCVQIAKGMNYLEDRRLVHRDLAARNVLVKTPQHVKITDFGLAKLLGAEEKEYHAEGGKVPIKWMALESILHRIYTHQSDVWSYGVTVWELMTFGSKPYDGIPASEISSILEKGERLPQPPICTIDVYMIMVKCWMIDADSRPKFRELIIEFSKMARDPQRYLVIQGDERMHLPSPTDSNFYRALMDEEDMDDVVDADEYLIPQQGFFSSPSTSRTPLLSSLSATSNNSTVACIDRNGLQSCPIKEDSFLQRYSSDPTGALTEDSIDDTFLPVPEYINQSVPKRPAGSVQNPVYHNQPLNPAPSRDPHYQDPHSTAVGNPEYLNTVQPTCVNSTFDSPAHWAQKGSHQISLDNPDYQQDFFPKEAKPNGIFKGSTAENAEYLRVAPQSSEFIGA
T2 sequence (P35968 20-1356): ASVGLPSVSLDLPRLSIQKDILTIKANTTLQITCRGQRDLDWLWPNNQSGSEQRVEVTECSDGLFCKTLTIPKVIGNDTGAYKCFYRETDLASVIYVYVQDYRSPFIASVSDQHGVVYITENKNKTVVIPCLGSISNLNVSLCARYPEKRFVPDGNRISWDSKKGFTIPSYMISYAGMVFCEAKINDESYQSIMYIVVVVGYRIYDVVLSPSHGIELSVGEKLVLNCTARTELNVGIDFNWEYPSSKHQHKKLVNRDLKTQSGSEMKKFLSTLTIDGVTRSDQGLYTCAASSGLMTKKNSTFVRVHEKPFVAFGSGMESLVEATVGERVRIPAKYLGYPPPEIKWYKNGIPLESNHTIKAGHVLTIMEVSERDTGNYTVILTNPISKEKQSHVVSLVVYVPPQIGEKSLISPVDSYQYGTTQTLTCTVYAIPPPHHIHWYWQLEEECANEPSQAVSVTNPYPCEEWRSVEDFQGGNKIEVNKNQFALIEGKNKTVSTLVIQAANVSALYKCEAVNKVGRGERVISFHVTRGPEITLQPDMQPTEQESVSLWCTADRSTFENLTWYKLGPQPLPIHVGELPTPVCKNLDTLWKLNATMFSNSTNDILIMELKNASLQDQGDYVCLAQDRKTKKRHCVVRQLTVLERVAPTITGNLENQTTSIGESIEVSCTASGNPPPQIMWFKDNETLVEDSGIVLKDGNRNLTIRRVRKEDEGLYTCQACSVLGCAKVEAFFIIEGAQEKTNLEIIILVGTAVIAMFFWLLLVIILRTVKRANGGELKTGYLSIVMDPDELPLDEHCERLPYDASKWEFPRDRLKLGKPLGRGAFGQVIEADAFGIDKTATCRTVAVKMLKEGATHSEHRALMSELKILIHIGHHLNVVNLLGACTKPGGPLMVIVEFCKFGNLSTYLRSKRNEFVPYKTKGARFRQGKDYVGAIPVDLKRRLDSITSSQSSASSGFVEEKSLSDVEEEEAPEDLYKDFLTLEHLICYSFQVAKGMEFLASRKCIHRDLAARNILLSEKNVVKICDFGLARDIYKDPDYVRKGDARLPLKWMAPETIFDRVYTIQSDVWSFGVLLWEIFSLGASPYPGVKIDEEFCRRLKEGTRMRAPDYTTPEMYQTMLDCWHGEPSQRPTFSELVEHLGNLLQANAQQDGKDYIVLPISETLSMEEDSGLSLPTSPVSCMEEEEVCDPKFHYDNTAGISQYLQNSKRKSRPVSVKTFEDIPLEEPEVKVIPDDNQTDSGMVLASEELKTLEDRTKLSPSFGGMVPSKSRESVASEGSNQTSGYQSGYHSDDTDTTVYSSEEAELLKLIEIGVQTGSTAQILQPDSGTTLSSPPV
AChE, sequence (P22303 32-614): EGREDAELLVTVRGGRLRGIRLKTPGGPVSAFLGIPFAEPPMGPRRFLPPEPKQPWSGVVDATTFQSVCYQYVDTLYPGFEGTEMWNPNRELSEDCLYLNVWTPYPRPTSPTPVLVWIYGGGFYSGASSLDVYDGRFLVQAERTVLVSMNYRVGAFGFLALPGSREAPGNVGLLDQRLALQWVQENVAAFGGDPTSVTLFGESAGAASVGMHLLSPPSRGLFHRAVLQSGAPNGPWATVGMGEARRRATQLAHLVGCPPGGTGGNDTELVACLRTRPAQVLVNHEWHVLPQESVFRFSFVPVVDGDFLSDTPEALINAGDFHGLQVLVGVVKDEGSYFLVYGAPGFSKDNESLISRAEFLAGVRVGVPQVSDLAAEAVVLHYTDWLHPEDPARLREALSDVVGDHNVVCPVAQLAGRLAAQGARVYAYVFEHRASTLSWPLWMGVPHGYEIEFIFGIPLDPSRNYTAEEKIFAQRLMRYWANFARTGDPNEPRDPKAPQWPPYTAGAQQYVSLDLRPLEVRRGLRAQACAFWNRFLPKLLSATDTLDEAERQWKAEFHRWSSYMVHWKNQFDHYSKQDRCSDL
BChE, sequence (P06276 29-602, species assumed): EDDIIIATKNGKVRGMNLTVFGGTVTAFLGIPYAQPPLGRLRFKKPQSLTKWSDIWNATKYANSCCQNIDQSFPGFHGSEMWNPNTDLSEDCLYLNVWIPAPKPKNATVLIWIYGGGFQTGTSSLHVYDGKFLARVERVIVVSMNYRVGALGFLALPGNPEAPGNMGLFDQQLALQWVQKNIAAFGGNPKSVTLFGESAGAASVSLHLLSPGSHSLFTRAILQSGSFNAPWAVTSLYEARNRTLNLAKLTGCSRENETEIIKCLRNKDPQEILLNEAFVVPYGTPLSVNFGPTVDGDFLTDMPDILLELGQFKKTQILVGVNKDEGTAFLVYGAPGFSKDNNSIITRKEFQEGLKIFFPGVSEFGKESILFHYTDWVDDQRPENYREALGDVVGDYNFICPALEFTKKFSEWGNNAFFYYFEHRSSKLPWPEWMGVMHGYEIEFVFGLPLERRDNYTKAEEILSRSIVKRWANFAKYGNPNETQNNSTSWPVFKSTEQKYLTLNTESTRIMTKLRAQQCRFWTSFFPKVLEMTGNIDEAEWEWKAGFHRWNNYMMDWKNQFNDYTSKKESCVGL

SMILES	IC50 [1] [µM]	SI (selectivity index) MCF7 [1]	IC50 [2] [µM]	SI (selectivity index) HCT116 [2]	IC50 [3, 8] [µM]	IC50 [3, 9] [µM]	SI (selectivity index) A431 [3]	IC50 ([4]; PaCa-2, 72 h) [µM]	IC50 [5] [µM]	EGFR % Inhibition (EGFR) [%]	EGFR RQ (relative quantification) (EGFR)	VEGFR-2 % Inhibition (VEGFR-2) [%]	VEGFR-2 RQ (relative quantification) (VEGFR-2)	IC50 [6, 10] [µM]	IC50 [6, 11] [µM]	SI = CC50/IC50 [6]	CC50 at 24 h [7] [µM]	SI = IC50 (AChE)/IC50 (BChE) (AChE)	IC50 (AChE) [µM]	IC50 (BChE) [µM]	also measured
CN1CC(c2ccccc2)C2(CN(S(C)(=O)=O)C/C(=C\c3ccccc3)C2=O)C12C(=O)Nc1ccccc12 (centres unmarked) [Compound 6a, (E)-5″-Benzylidene-1′-methyl-1″-(methylsulfonyl)-4′-phenyldispiro[indoline-3,2′-pyrrolidine-3′,3″-piperidine]-2,4″-dione]	19.8 ± 0.99	> 2.5	16 ± 1.1	> 3.1	32.3 ± 1.14	32.3	> 1.5	48.4 ± 2.23	> 50	66.4	1.1593	60.9	1.2773	34.3	34.3	158.6	5430	1.1	22.2 ± 3.35	19.8 ± 2.18	SI (selectivity index) PaCa-2 [4]: > 1.0
CN1CC(c2ccccc2)C2(CN(S(C)(=O)=O)C/C(=C\c3ccccc3)C2=O)C12C(=O)Nc1ccc(Cl)cc12 (centres unmarked) [Compound 6b, (E)-5″-Benzylidene-5-chloro-1′-methyl-1″-(methylsulfonyl)-4′-phenyldispiro[indoline-3,2′-pyrrolidine-3′,3″-piperidine]-2,4″-dione]	7.66 ± 0.68	3.2	6.92 ± 0.52	3.6	9.15 ± 0.7	9.15	2.7	20.6 ± 1.17	24.7 ± 1.26	54.1	1.5804	64.2	1.167	9.63	9.63	132.0	1270	0.9	27.7 ± 5.45	29.2 ± 3.62	SI (selectivity index) PaCa-2 [4]: 1.2
CCS(=O)(=O)N1C/C(=C\c2ccccc2)C(=O)C2(C1)C(c1ccccc1)CN(C)C21C(=O)Nc2ccccc21 (centres unmarked) [Compound 6c, (E)-5″-Benzylidene-1″-(ethylsulfonyl)-1′-methyl-4′-phenyldispiro[indoline-3,2′-pyrrolidine-3′,3″-piperidine]-2,4″-dione]	> 50		6.12 ± 0.44	> 8.2	33.2 ± 0.91	33.2	> 1.5	> 50	> 50	69.6	1.0493	63.8	1.18	103	103	55.5	5700	1.2	78 ± 3.26	65.4 ± 2.42	
CCS(=O)(=O)N1C/C(=C\c2ccccc2)C(=O)C2(C1)C(c1ccccc1)CN(C)C21C(=O)Nc2ccc(Cl)cc21 (centres unmarked) [Compound 6d, (E)-5″-Benzylidene-5-chloro-1″-(ethylsulfonyl)-1′-methyl-4′-phenyldispiro[indoline-3,2′-pyrrolidine-3′,3″-piperidine]-2,4″-dione]	6.92 ± 0.55	> 7.2	5.18 ± 0.61	> 9.7	4.96 ± 0.25	4.96	> 10.1	13.1 ± 1.1	> 50	62.9	1.2774	63.8	1.181	171	171	101.1	17300	1.2	41 ± 7.03	34.4 ± 2	SI (selectivity index) PaCa-2 [4]: > 3.8
CN1CC(c2ccc(F)cc2)C2(CN(S(C)(=O)=O)C/C(=C\c3ccc(F)cc3)C2=O)C12C(=O)Nc1ccccc12 (centres unmarked) [Compound 6e, (E)-5″-(4-Fluorobenzylidene)-4′-(4-fluorophenyl)-1′-methyl-1″-(methylsulfonyl)dispiro[indoline-3,2′-pyrrolidine-3′,3″-piperidine]-2,4″-dione]	15.5 ± 0.76	3.2	9.89 ± 0.85	5.0	16.1 ± 0.99	16.1	3.1	39.9 ± 1.89	49 ± 1.11	66.7	1.147	64.5	1.158	27.9	27.9	7.3	203	0.7	15.1 ± 5.76	22.2 ± 4.54	SI (selectivity index) PaCa-2 [4]: 1.2
CCN(CC)CCNC(=O)c1c(C)[nH]c(/C=C2\C(=O)Nc3ccc(F)cc32)c1C [Sunitinib, reference compound]																					IC50 ([4]; MTT, 72 h, PaCa-2): 16.9 ± 0.95 µM
